From the NIST ThermoML archive (doi:10.1016/j.jct.2015.07.029)
± gives the expanded uncertainty stated by the source.

Assay: mn = molality of the nth substance listed, in mol/kg
Conditions: 101.3 kPa, Liquid, Alternating current cell with electrodes

Question: Which electrical conductivity (288.15 K, m1 = 0.001) does the source give for O=C(O)c1ccc(O)c(O)c1 [3,4-dihydroxybenzoic acid] + O here?
Answer: 0.0048 ± 0.0011 S/m

Question: And the electrical conductivity (288.15 K, m1 = 0.002)?
Answer: 0.007 ± 0.0014 S/m

Question: What about the electrical conductivity (288.15 K, m1 = 0.004) of the same compound?
Answer: 0.0102 ± 0.0021 S/m

Question: And the electrical conductivity (288.15 K, m1 = 0.006)?
Answer: 0.0126 ± 0.0025 S/m

Question: What about the electrical conductivity (288.15 K, m1 = 0.008) of the same compound?
Answer: 0.0146 ± 0.0029 S/m

Question: What about the electrical conductivity (288.15 K, m1 = 0.01) of the same compound?
Answer: 0.0164 ± 0.0033 S/m

Question: What about the electrical conductivity (291.15 K, m1 = 0.001) of the same compound?
Answer: 0.0051 ± 0.0011 S/m

Question: What about the electrical conductivity (291.15 K, m1 = 0.002) of the same compound?
Answer: 0.0074 ± 0.0015 S/m

Question: And the electrical conductivity (291.15 K, m1 = 0.004)?
Answer: 0.0107 ± 0.0022 S/m

Question: And the electrical conductivity (291.15 K, m1 = 0.006)?
Answer: 0.0132 ± 0.0027 S/m

Question: And the electrical conductivity (291.15 K, m1 = 0.008)?
Answer: 0.0154 ± 0.0031 S/m

Question: What about the electrical conductivity (291.15 K, m1 = 0.01) of the same compound?
Answer: 0.0173 ± 0.0035 S/m

Question: What about the electrical conductivity (294.15 K, m1 = 0.001) of the same compound?
Answer: 0.0054 ± 0.0012 S/m

Question: What about the electrical conductivity (294.15 K, m1 = 0.002) of the same compound?
Answer: 0.0078 ± 0.0016 S/m

Question: What about the electrical conductivity (294.15 K, m1 = 0.004) of the same compound?
Answer: 0.0113 ± 0.0023 S/m

Question: And the electrical conductivity (294.15 K, m1 = 0.006)?
Answer: 0.014 ± 0.0028 S/m

Question: And the electrical conductivity (294.15 K, m1 = 0.008)?
Answer: 0.0162 ± 0.0032 S/m

Question: What about the electrical conductivity (294.15 K, m1 = 0.01) of the same compound?
Answer: 0.0182 ± 0.0036 S/m

Question: And the electrical conductivity (298.15 K, m1 = 0.001)?
Answer: 0.0058 ± 0.0013 S/m

Question: And the electrical conductivity (298.15 K, m1 = 0.002)?
Answer: 0.0084 ± 0.0017 S/m

Question: What about the electrical conductivity (298.15 K, m1 = 0.004) of the same compound?
Answer: 0.0121 ± 0.0024 S/m

Question: What about the electrical conductivity (298.15 K, m1 = 0.006) of the same compound?
Answer: 0.015 ± 0.003 S/m

Question: What about the electrical conductivity (298.15 K, m1 = 0.008) of the same compound?
Answer: 0.0174 ± 0.0035 S/m

Question: And the electrical conductivity (298.15 K, m1 = 0.01)?
Answer: 0.0196 ± 0.0039 S/m
